Experimental data: paper PMC8502973 (Frontiers in Physiology, 2021)
Entries after “also recorded” stand apart in the source; their conditions may differ.

Key:
[1] = Dose escalation: food intake; format: in vivo, male DIO Sprague Dawley rats
Method: (§1) Sprague Dawley rats (male, ∼4 weeks of age, 51–75 g body weight) were switched from standard chow to a high fat diet (Research Diets, Diet # D12492, 60, 20, 20%kcal from fat, protein, and carbohydrate, respectively, 5.21 kcal/g; stored at −20°C). The rats were maintained on this diet for approximately 15 weeks prior to the start of experiments to develop a diet-induced overweight (DIO) model. Animals were individually housed on a 12 h/12 h light/dark cycle (lights on at 04:00 h) in a temperature (23°C) and humidity (mean 50%, SD 10%) controlled room. All body weight measurements were made just prior to the start of the dark cycle.
(§2) Sequential rounds of a 3-day baseline phase (vehicle treated), a 3-day treatment phase, and a washout phase (2–5 days as necessary) were tested. […] High fat diet was accessible to the rats from all but the last 6 h of the light cycle and water was provided ad libitum. This daily period of food restriction was used to prevent incidental feeding in the event animals were disturbed from their sleep by noise from surrounding rooms. To assess a potential pica response (nausea/visceral malaise) in animals, powdered kaolin (Sigma-Aldrich, K1512) was made available on drug treatment days with a restriction period similar to the high fat diet. Prior to the first experiment, rats were provided access to kaolin for 2 days so that they could familiarize themselves with it prior to start of testing. Food and kaolin intake were continuously recorded using AccuScan DietMax (currently OmniTech Electronics, Inc., Diet System) cages. The high fat diet was compressed in the food tray to form a solid block of food. This allows for more accurate meal size measurements by preventing the animals from removing entire pellets at time. All food and kaolin intake data were binned into 15-min intervals for analysis and the start of the 24-h food intake period aligned to the lights turning off in the animal room. Body weight was recorded, and treatment injections were administered just prior to the start of the dark cycle.

[2] = Dose escalation: body weight change; format: in vivo, male DIO Sprague Dawley rats; settings: sc once daily
Method: as §1
(§3) Sequential rounds of a 3-day baseline phase (vehicle treated), a 3-day treatment phase, and a washout phase (2–5 days as necessary) were tested. […] High fat diet was accessible to the rats from all but the last 6 h of the light cycle and water was provided ad libitum. This daily period of food restriction was used to prevent incidental feeding in the event animals were disturbed from their sleep by noise from surrounding rooms. […] Food and kaolin intake were continuously recorded using AccuScan DietMax (currently OmniTech Electronics, Inc., Diet System) cages. […] Body weight was recorded, and treatment injections were administered just prior to the start of the dark cycle.

[3] = Dose escalation: kaolin intake (pica, nausea/visceral malaise); format: in vivo, male DIO Sprague Dawley rats
Method: as §1, §2

[4] = Dose escalation: water intake; format: in vivo, male DIO Sprague Dawley rats; settings: sc once daily; ASK1476 F(1.80, 12.61) = 3.15, p = 0.082; OXT F(1.68, 11.72) = 4.05, p = 0.086
Method: as §1, §3

Toxicity / mortality = format: in vivo; settings: rat, in vivo, sc
[5] = Long-term (28-day) drug intervention: body weight; format: in vivo, male DIO Sprague Dawley rats
Method: as §1
(§4) Male DIO Sprague Dawley rats (n = 24) were generated as outlined above and were 644.5 g (50 g) at the start of drug treatment. The animals were divided into three treatment groups (n = 8 each) balanced for body weight, body weight gain during baseline, food intake, and Lee Index [body weight^(1/3)/snout to anus length (mm)] ([Lee, 1929]; [Simson and Gold, 1982]) as an indicator of adiposity (Figure 2). In a subset of the animals (n = 5 per group, balanced for prior mentioned criteria), Mini-Mitter transponders (PDT-4000 E-Mitter, Respironics Inc.) were implanted posterior to the left scapula at least 9 days prior to start of baseline measures to ensure sufficient recovery time. Body temperature and gross motor activity were continuously recorded via these transponders. […] High fat diet and water were provided ad libitum and intake was recorded with daily hopper and water bottle weighs at time of body weight assessment just prior to drug administration. Blood samples were taken at start of intervention by tail vein bleeding and via cardiac puncture under an isoflurane induced surgical plane of anesthesia at euthanasia. Animals were euthanized on treatment day 29, 4 h after receiving a dose of their assigned treatment, via decapitation under isoflurane anesthesia immediately following blood draw. Body composition was assessed on carcasses.
From treatment day 8 on the doses were maintained to assess long-term efficacy at a therapeutically meaningful dose.

[6] = Long-term: gross motor activity and body temperature (Mini-Mitter transponders); format: in vivo, male DIO Sprague Dawley rats; settings: 28-day study, n = 5 per group, first 12 days analysed
Text: as §4
For comparisons of mean longitudinal changes in body temperature and activity, only the first 12 days of treatment, divided into three 4-day phases, were included in the analysis. These 4-day phases allowed for analyses to consider the ASK1476 dose titration.

[7] = Long-term: body composition of carcasses by quantitative magnetic resonance; format: in vivo, male DIO Sprague Dawley rats
Text: as §4
Body composition (total and relative fat mass, lean mass, and water content) was assessed on carcasses from the long-term drug intervention study using Quantitative Magnetic Resonance (EchoMRI 4-in-1, Echo Medical Systems, Houston, TX) at the Rodent Metabolic and Behavioral Phenotyping Core at the VA Puget Sound Health Care System (VAPSHCS).

hOXTR = test system: hOXTR; set-up: method as in 2 sources, one per row (each row's own in cited_ref): ref Wiśniewski et al. (2014) ||| ref Modi et al. (2016); settings: OXT; ref Wiśniewski et al. (2014); cited from earlier work
hV1aR = test system: hV1aR; set-up: method as in 3 sources, one per row (each row's own in cited_ref): ref Wiśniewski et al. (2014) ||| ref Modi et al. (2016) ||| ref Modi et al., 2016; settings: OXT; ref Wiśniewski et al. (2014); cited from earlier work
[8] = test system: OXTR compared with the V1aR; set-up: method as in Akerlund et al., 1999; settings: ref Akerlund et al., 1999; cited from earlier work
Text: (§5) Finally, the potential for toxic side effects upon chronic administration at high concentration and/or f ...

[9] = cited from earlier work
Text: as §5

[10] = set-up: method as in Freeman et al., 2016; settings: peripheral administration, macaques; ref Freeman et al., 2016; cited from earlier work
[11] = 2015, cited from earlier work
Text: OXT is a downstream target of the adipose tissue hormone leptin.

oxytocin [OXT]
reduction in 3-day averaged food intake ([1]; OXT 20 nmol/kg sc once daily vs 3-day saline baseline, n = 8, 95% CI −19.40 to −2.94, p = 0.0106): -11.17 kcal/day | lowest dose with significant reduction in 3-day averaged food intake ([1]; sc once daily, 3 days, n = 8): 20 nmol/kg | interaction of treatment and dose on 3-day averaged food intake ([1]; sc once daily, ASK1476 F(2.84, 19.86) = 6.52, p = 0.003, OXT F(1.89, 13.25) = 9.49, p = 0.003): significant interaction | body weight gain across dosing spectrum ([2]; ASK1476 6-300 nmol/kg, OXT 20-1200 nmol/kg, 3 days): Significant reductions in body weight gain; also recorded: effective in reducing body weight gain across the dose spectrum | interaction of treatment and dose on body weight change ([2]; ASK1476 F(2.08, 15.54) = 9.50, p = 0.002, OXT F(2.40, 16.79) = 16.98, p < 0.0001): significant interaction | visceral malaise signal (notably high kaolin intake in a few animals) ([3]; ASK1476 dosing spectrum): not observed in any | kaolin intake at low doses ([3]; low doses, sc once daily): below 4 g/d | kaolin intake, effect of treatment ([3]; sc once daily, ASK1476 6-300 nmol/kg F(1.80, 12.59) = 2.26, p = 0.148, OXT 20-1200 nmol/kg F(1.51, 10.52) = 1.73, p = 0.223): no significant effect of treatment | water intake [4]: not significantly affected | adverse effects or tolerability issues (Toxicity / mortality): No adverse effects or tolerability issues were observed | compensatory weight gain / weight regain following nadir ([5]; 28-d treatment): significantly lower rates of weight regain following body weight nadir | average day of body weight nadir ([5]; 28-day treatment, sc once daily): 14 days | daily percent change of body weight from nadir, mean difference vs. vehicle ([5]; OXT: 95% CI −0.23 to 0.01, p = 0.069): −0.11% | Body weight, post-treatment ([5]; after 28-day Tx, ASK1476 to 120 or OXT 600 nmol/kg/d sc, n = 8, Mean ± SD, oxytocin * p < 0.05 vs vehicle, ANOVA p 0.041): 615.143.2* g | reduction in body weight, OXT 600 nmol/kg/d compared with ASK1476 30 and 60 nmol/kg ([5]; long-term study, titration phases): significantly greater reductions in body weight | average daily individual percent change of body weight from nadir to end of treatment ([5]; mean, SD 0.04% ASK1476, 0.16% OXT, vehicle 0.34% (SD 0.05%)): 0.23% | weight stability during final 20 days ([5]; treatment days 9-28): remained weight stable | locomotor activity or body temperature [6]: did not find any evidence | locomotor activity or body temperature ([6]; listed as oxytocin): no effects were detected on locomotor activity or body temperature | fat mass, difference vs vehicle ([7]; OXT 600 nmol/kg/d 28 days, 95% CI −97.2 to 7.2, p = 0.103): -45.0 g | lean mass, difference vs vehicle ([7]; OXT 600 nmol/kg/d 28 days, 95% CU −109.8 to −5.4, p = 0.028): -57.6 g | Lean mass, post-treatment ([7]; after 28-day Tx, n = 8, Mean ± SD, oxytocin * p < 0.05 vs vehicle, ANOVA p 0.015): 416.531.9* g | EC50 (hOXTR): 2.3 nM | EC50 (hV1aR): 10 nM | affinity for the OXTR compared with the V1aR [8]: fivefold greater affinity | half-life in vivo [9]: ~5 min | entry into the CSF from the periphery [10]: only small amounts | food intake, energy expenditure and weight gain ([11]; peripheral administration, diet-induced and genetically obese rodent models, ref Maejima et al., 2011, Morton et al., 2012, Blevins et al.): reduces food intake, enhances energy expenditure, and prevents or reduces weight gain | energy expenditure / weight loss in diet-induced obese non-human primates ([11]; ref Blevins et al.): elicits weight loss, in part, by increasing energy expenditure
